# Source: ChEMBL document CHEMBL1201862, “PubChem BioAssay data set” (2004)
#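 Values below derive from 48-hour exposures of cells grown in 96-well plates, with endpoints linearly interpolated between the two concentrations bracketing the appropriate inhibition level. GI50 is the concentration that inhibits growth by half.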 Activity calls are given as the source filed them. Rule as the data show it: active = GI50 up to about 1.1 µM and inactive = higher.
# Columns and labels:
# Assay in all cases: NCI-60 cell line screen, 48 h
# [1] = system: 786-0
# [2] = system: A498
# [3] = system: A549
# [4] = system: ACHN
# [5] = system: CAKI-1
# [6] = system: CCRF-CEM
# [7] = system: DLD-1
# [8] = system: DMS-114
# [9] = system: DMS-273
# [10] = system: EKVX
# [11] = system: HCC 2998
# [12] = system: HCT-116
# [13] = system: HCT-15
# [14] = system: HL-60
# [15] = system: HOP-62
# [16] = system: HT-29
# [17] = system: IGROV-1
# [18] = system: K562
# [19] = system: KM12
# [20] = system: LOX IMVI
# [21] = system: LXFL 529
# [22] = system: M14
# [23] = system: M19-MEL
# [24] = system: MOLT-4
# [25] = system: Malme-3M
# [26] = system: NCI-H23
# [27] = system: NCI-H460
# [28] = system: NCI-H522
# [29] = system: OVCAR-3
# [30] = system: OVCAR-4
# [31] = system: OVCAR-8
# [32] = system: RPMI-8226
# [33] = system: RXF 393
# [34] = system: RXF 631
# [35] = system: SF-268
# [36] = system: SF-295
# [37] = system: SF-539
# [38] = system: SK-MEL-28
# [39] = system: SK-MEL-2
# [40] = system: SK-MEL-5
# [41] = system: SK-OV-3
# [42] = system: SN12C
# [43] = system: SNB-19
# [44] = system: SNB-75
# [45] = system: SR
# [46] = system: SW-620
# [47] = system: U-251
# [48] = system: UACC-257
# [49] = system: UACC-62
# [50] = system: UO-31
# [51] = system: COLO 205
# [52] = system: HOP-18
# [53] = system: HOP-92
# [54] = system: KM-20L2
# [55] = system: NCI-H226
# [56] = system: OVCAR-5
# [57] = system: SNB-78
# [58] = system: TK-10
# [59] = system: XF498
structure (smiles),measurement,setting,value
CC(CCCOC(c1ccccc1)(c1ccccc1)c1ccccc1)OC(=O)Nc1cc([N+](=O)[O-])cc([N+](=O)[O-])c1 (stereo unspecified),GI50,[1],28.2 µM (inactive)
same,GI50,[2],22.8 µM (inactive)
same,GI50,[3],31.6 µM (inactive)
same,GI50,[4],27.7 µM (inactive)
same,GI50,[5],18.5 µM (inactive)
same,GI50,[6],32.4 µM (inactive)
same,GI50,[7],30.1 µM (inactive)
same,GI50,[8],30.6 µM (inactive)
same,GI50,[9],33.7 µM (inactive)
same,GI50,[10],32 µM (inactive)
same,GI50,[11],35.6 µM (inactive)
same,GI50,[12],33.9 µM (inactive)
same,GI50,[13],32.4 µM
same,GI50,[14],31.6 µM (inactive)
same,GI50,[15],27.4 µM (inactive)
same,GI50,[16],28.2 µM (inactive)
same,GI50,[17],30.9 µM (inactive)
same,GI50,[18],32.1 µM (inactive)
same,GI50,[19],32.1 µM (inactive)
same,GI50,[20],29.9 µM (inactive)
same,GI50,[21],29.2 µM (inactive)
same,GI50,[22],34.9 µM (inactive)
same,GI50,[23],40.3 µM (inactive)
same,GI50,[24],28.8 µM (inactive)
same,GI50,[25],27.6 µM (inactive)
same,GI50,[26],29 µM (inactive)
same,GI50,[27],24.5 µM (inactive)
same,GI50,[28],23.7 µM (inactive)
same,GI50,[29],33.3 µM (inactive)
same,GI50,[30],37.5 µM (inactive)
same,GI50,[31],33.5 µM (inactive)
same,GI50,[32],32.5 µM (inactive)
same,GI50,[33],43.3 µM (inactive)
same,GI50,[34],38.2 µM (inactive)
same,GI50,[35],35.5 µM (inactive)
same,GI50,[36],27 µM (inactive)
same,GI50,[37],38 µM (inactive)
same,GI50,[38],28.2 µM (inactive)
same,GI50,[39],29.4 µM (inactive)
same,GI50,[40],22.8 µM (inactive)
same,GI50,[41],14.8 µM (inactive)
same,GI50,[42],41.5 µM (inactive)
same,GI50,[43],57.5 µM (inactive)
same,GI50,[44],21.3 µM (inactive)
same,GI50,[45],38.5 µM (inactive)
same,GI50,[46],33.5 µM (inactive)
same,GI50,[47],36.9 µM (inactive)
same,GI50,[48],24.3 µM (inactive)
same,GI50,[49],16.9 µM (inactive)
same,GI50,[50],49 µM (inactive)
COC(=O)C(=C\Sc1ccccc1)/C=C/C(=O)OC(C)(C)C,GI50,[1],5.27 µM (inactive)
same,GI50,[3],18.3 µM (inactive)
same,GI50,[4],7.23 µM (inactive)
same,GI50,[5],3.87 µM (inactive)
same,GI50,[6],1.89 µM (inactive)
same,GI50,[51],5.3 µM (inactive)
same,GI50,[7],2.62 µM (inactive)
same,GI50,[8],11.2 µM (inactive)
same,GI50,[9],11.9 µM (inactive)
same,GI50,[10],10.6 µM (inactive)
same,GI50,[11],10.1 µM (inactive)
same,GI50,[12],8.47 µM (inactive)
same,GI50,[13],6.67 µM
same,GI50,[14],1.48 µM (inactive)
same,GI50,[52],16.2 µM (inactive)
same,GI50,[15],19.5 µM (inactive)
same,GI50,[53],4.4 µM (inactive)
same,GI50,[16],16.5 µM (inactive)
same,GI50,[17],13.1 µM (inactive)
same,GI50,[18],3.01 µM (inactive)
same,GI50,[54],17.1 µM (inactive)
same,GI50,[19],11.4 µM (inactive)
same,GI50,[20],8.32 µM (inactive)
same,GI50,[21],3.5 µM (inactive)
same,GI50,[22],7.78 µM (inactive)
same,GI50,[23],10.8 µM (inactive)
same,GI50,[24],2.84 µM (inactive)
same,GI50,[25],15.9 µM (inactive)
same,GI50,[55],15.6 µM (inactive)
same,GI50,[26],17.1 µM (inactive)
same,GI50,[27],17.7 µM (inactive)
same,GI50,[28],5.07 µM (inactive)
same,GI50,[29],5.25 µM (inactive)
same,GI50,[30],15 µM (inactive)
same,GI50,[56],15.4 µM (inactive)
same,GI50,[31],15.3 µM (inactive)
same,GI50,[32],3.06 µM (inactive)
same,GI50,[33],2.69 µM (inactive)
same,GI50,[35],14.9 µM (inactive)
same,GI50,[36],17.4 µM (inactive)
same,GI50,[37],13.6 µM (inactive)
same,GI50,[38],13.4 µM (inactive)
same,GI50,[39],12 µM (inactive)
same,GI50,[40],15 µM (inactive)
same,GI50,[41],24 µM (inactive)
same,GI50,[43],4.08 µM (inactive)
same,GI50,[44],14 µM (inactive)
same,GI50,[57],15.1 µM (inactive)
same,GI50,[45],2.87 µM (inactive)
same,GI50,[46],3.8 µM (inactive)
same,GI50,[58],17.1 µM (inactive)
same,GI50,[47],14.5 µM (inactive)
same,GI50,[48],13.5 µM (inactive)
same,GI50,[49],15.3 µM (inactive)
same,GI50,[50],16 µM (inactive)
same,GI50,[59],15 µM (inactive)
